Experimental data from BigSolDB 2.1.

Oc1ccc(/C=C/c2cc(O)cc(O)c2)cc1
solubility (mole fraction)
Conditions | in dichloromethane | in ethanol | in methanol | in n-butanol | in n-propanol
283.15 K | 1.23e-06 | 0.0212 | 0.0174 | 0.0103 | 0.0134
288.15 K | 1.57e-06 | 0.0224 | 0.0182 | 0.0112 | 0.0145
293.15 K | 2e-06 | 0.0236 | 0.019 | 0.0121 | 0.0156
298.15 K | 2.53e-06 | 0.0248 | 0.0198 | 0.013 | 0.0168
303.15 K | 3.13e-06 | 0.0261 | 0.0206 | 0.014 | 0.018
